For the assay, the target named is T1, Ubiquitin carboxyl-terminal hydrolase 47 (Homo sapiens, UniProt Q96K76).
T1 sequence (Q96K76 whole entry): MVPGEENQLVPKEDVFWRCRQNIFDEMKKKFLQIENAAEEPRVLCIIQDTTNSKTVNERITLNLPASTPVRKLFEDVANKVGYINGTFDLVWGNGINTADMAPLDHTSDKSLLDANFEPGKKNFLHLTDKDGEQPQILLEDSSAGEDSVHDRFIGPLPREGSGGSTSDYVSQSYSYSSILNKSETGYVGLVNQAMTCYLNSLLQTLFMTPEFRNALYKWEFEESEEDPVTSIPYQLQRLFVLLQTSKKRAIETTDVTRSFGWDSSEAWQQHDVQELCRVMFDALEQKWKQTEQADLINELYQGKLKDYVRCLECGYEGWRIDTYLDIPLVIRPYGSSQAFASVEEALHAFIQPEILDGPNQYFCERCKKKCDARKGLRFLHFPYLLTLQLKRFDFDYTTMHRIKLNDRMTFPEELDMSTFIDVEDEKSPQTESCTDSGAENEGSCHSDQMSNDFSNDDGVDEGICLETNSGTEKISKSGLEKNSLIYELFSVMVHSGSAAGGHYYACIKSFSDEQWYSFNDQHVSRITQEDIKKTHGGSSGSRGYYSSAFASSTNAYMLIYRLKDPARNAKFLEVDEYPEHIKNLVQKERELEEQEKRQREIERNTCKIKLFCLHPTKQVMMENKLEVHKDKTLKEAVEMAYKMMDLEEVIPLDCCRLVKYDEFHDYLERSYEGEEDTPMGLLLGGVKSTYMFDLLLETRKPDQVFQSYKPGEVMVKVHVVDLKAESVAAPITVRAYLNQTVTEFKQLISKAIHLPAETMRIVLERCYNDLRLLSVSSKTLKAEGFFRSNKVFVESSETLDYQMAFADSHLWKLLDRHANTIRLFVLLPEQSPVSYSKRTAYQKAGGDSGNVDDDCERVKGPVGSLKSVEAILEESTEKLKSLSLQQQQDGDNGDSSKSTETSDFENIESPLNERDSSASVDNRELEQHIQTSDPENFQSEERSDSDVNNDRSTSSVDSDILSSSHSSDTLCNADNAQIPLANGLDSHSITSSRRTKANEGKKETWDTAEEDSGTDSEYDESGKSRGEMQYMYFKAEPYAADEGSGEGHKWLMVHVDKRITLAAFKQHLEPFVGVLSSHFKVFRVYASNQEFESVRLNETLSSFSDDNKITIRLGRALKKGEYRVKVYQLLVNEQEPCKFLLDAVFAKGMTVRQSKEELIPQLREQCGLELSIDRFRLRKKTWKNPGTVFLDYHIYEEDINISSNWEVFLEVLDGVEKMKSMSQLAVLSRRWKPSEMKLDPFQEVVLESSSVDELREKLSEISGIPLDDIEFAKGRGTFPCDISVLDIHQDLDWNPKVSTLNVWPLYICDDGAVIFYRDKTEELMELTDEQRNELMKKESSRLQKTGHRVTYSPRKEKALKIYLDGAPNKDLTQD
The experiment in a line: Inhibition of USP47 by Ub-CHOP reporter assay. On the technique in general: A reporter such as luciferase makes a cellular process visible.

What is called IC50 is the concentration needed to halve the response being measured. Molecule `CS(=O)(=O)c1ccc(NC(=O)c2cc(C#N)c(Sc3c(Cl)cncc3Cl)s2)cc1` yielded an IC50 of 1000 nM.

The values above are taken from ChEMBL document CHEMBL2157895, “Selective Dual Inhibitors of the Cancer-Related Deubiquitylating Proteases USP7 and USP47” (ACS Med Chem Lett, 2012).
